Laboratory results taken from patent publication US11103497B2, “Treatment of imatinib resistant leukemia” (Wyeth LLC, priority 2007, dated 2021).
Read-outs that look alike come from different tables or passages of the source.

Assays:
BcrAbl [1] = test system: BcrAbl
Text: Bone marrow morphology is used to determine the blast and immature myeloid cell counts in order to define disease phases.
(§1) Standard cytogenetics are used to determine the presence of the Philadelphia chromosome and its percent presence in marrow. Twenty or more metaphases should be counted for this determination. FISH (Fluorescent in situ hybridization) analysis may be used to confirm presence of BcrAbl fusion product.
(§2) Cytogenetic response to treatment. As used herein, a “cytogenetic response to treatment” indicates a relative disappearance of the Philadelphia chromosome in treated subjects as determined by a percentage of Philadelphia chromosome positive cells present. The response can be minimal, minor, partial or complete. […] These figures for % positive are based on analysis of 20 metaphases (per subject?). A fluorescence in situ hybridization (FISH)-based assay can be used to qualify response if insufficient metaphases are available.
(§3) Hematologic Responses to treatment.
The baseline bcr/abl gene was sequenced and point mutations were recorded.

BcrAbl [2] = format: in vivo, human
Text: as §1, §2, §3

[3] = test system: imatininb resistant CML cell lines; settings: cell lines having certain mutations associated with imatinib resistance; cited from earlier work
[4] = mutation Y253{H, F}, follow on data

## COc1cc(Nc2c(C#N)cnc3cc(OCCCN4CCN(C)CC4)c(OC)cc23)c(Cl)cc1Cl [SKI-606, 4-[(2,4-Dichloro-5-methoxy-phenyl)amino]-6-methoxy-7-[3-(4-methyl-1-piperazinyl)propoxy]-3-quinolinecarbonitrile]
BcrAbl [1]; mutation I432T
  heme responders per subjects assessed as per TABLE 1: 1 out of 1
BcrAbl [1]; mutation K263E
  heme responders per subjects assessed as per TABLE 1: 1 out of 1
BcrAbl [1]; mutation L273M
  cytogenetic responders per subjects assessed as per TABLE 1: 1 out of 1
  heme responders per subjects assessed as per TABLE 1: 1 out of 1
BcrAbl [1]; mutation M244V
  cytogenetic responders per subjects assessed as per TABLE 1: 1 out of 1
  heme responders per subjects assessed as per TABLE 1: 1 out of 1
BcrAbl [1]; mutation T315I
  cytogenetic responders per subjects assessed as per TABLE 1: 1 out of 1
  heme responders per subjects assessed as per TABLE 1: 1 out of 2
BcrAbl [1]; mutation Y253{H, F}
  cytogenetic responders per subjects assessed as per TABLE 1: 1 out of 2
  heme responders per subjects assessed as per TABLE 1: 2 out of 2
BcrAbl [1]; patients harboring at least one of nineteen unique point mutations of the bcr/abl gene, 400-600 mg per day
  cytogenetic or hematologic responses: resulted in cytogenetic or hematologic responses
BcrAbl [1]; some imatinib resistant patients not having one of the known resistance-associated mutations
  response to treatment: responded favorably
BcrAbl [2]; mutation E255K, follow on data
  cytogenetic responders per subjects assessed: 2 out of 2
  heme responders per subjects assessed: 2 out of 3
BcrAbl [2]; mutation E255V
  heme responders per subjects assessed: 1 out of 2
BcrAbl [2]; mutation E286G
  cytogenetic responders per subjects assessed: 1 out of 1
  heme responders per subjects assessed: 1 out of 1
BcrAbl [2]; mutation E355G
  cytogenetic responders per subjects assessed: 0 out of 1
  heme responders per subjects assessed: 1 out of 1
BcrAbl [2]; mutation E453K
  cytogenetic responders per subjects assessed: 1 out of 1
  heme responders per subjects assessed: 1 out of 1
BcrAbl [2]; mutation F317L, follow on data
  cytogenetic responders per subjects assessed: 1 out of 6
  heme responders per subjects assessed: 7 out of 8
BcrAbl [2]; mutation F359I
  cytogenetic responders per subjects assessed: 1 out of 1
  heme responders per subjects assessed: 1 out of 1
BcrAbl [2]; mutation F359V, follow on data
  cytogenetic responders per subjects assessed: 3 out of 4
  heme responders per subjects assessed: 5 out of 5
BcrAbl [2]; mutation F486S, follow on data
  cytogenetic responders per subjects assessed: 1 out of 2
  heme responders per subjects assessed: 1 out of 2
BcrAbl [2]; mutation G250E, follow on data
  cytogenetic responders per subjects assessed: 0 out of 1
  heme responders per subjects assessed: 2 out of 2
BcrAbl [2]; mutation G321R
  cytogenetic responders per subjects assessed: 0 out of 1
  heme responders per subjects assessed: 1 out of 1
BcrAbl [2]; mutation H396P, follow on data
  cytogenetic responders per subjects assessed: 1 out of 1
  heme responders per subjects assessed: 1 out of 1
BcrAbl [2]; mutation H396R
  cytogenetic responders per subjects assessed: 0 out of 2
  heme responders per subjects assessed: 1 out of 1
BcrAbl [2]; mutation I432T, follow on data
  cytogenetic responders per subjects assessed: 0 out of 1
  heme responders per subjects assessed: 1 out of 1
BcrAbl [2]; mutation K263E, follow on data
  cytogenetic responders per subjects assessed: 1 out of 1
  heme responders per subjects assessed: 1 out of 1
BcrAbl [2]; mutation L248V, follow on data
  cytogenetic responders per subjects assessed: 1 out of 3
  heme responders per subjects assessed: 2 out of 2
BcrAbl [2]; mutation L273M, follow on data
  cytogenetic responders per subjects assessed: 1 out of 1
  heme responders per subjects assessed: 1 out of 1
BcrAbl [2]; mutation L384P
  cytogenetic responders per subjects assessed: 0 out of 1
  heme responders per subjects assessed: 0 out of 1
BcrAbl [2]; mutation L387V
  cytogenetic responders per subjects assessed: 0 out of 1
  heme responders per subjects assessed: 1 out of 1
BcrAbl [2]; mutation M244V, follow on data
  cytogenetic responders per subjects assessed: 4 out of 4
  heme responders per subjects assessed: 4 out of 4
BcrAbl [2]; mutation M351T, follow on data
  cytogenetic responders per subjects assessed: 4 out of 6
  heme responders per subjects assessed: 5 out of 5
BcrAbl [2]; mutation N331S, follow on data
  cytogenetic responders per subjects assessed: 1 out of 1
BcrAbl [2]; mutation T277A
  cytogenetic responders per subjects assessed: 1 out of 1
  heme responders per subjects assessed: 1 out of 1
BcrAbl [2]; mutation T315I, follow on data
  cytogenetic responders per subjects assessed: 3 out of 3
  heme responders per subjects assessed: 5 out of 9
BcrAbl [2]; mutation V299L
  cytogenetic responders per subjects assessed: 0 out of 1
  heme responders per subjects assessed: 0 out of 1
BcrAbl [2]; mutation Y230H
  cytogenetic responders per subjects assessed: 0 out of 1
  heme responders per subjects assessed: 1 out of 1
BcrAbl [2]; [4]
  cytogenetic responders per subjects assessed: 3 out of 3
  heme responders per subjects assessed: 3 out of 3
[3]
  replication of imatinib resistant CML cell lines: effective at reducing replication
